Reference: US10335418B2, “Methods and compositions for treating metabolic syndrome” (Topokine Therapeutics, Inc., priority 2011, dated 2019)

Experiments:
subcutaneous fat [1] = experiment: Histologic sections of skin and subcutaneous fat, (db-/db-) mice; format: in vivo; settings: for adipocytes and adipose layer, treated (right) flank / adipocytes and adipose layer, untreated (left) flank: day 28; for local versus systemic effect by histology: topical, concentration up to 0.3%
Experimental: (§1) Methods: Mice were obtained from Jackson Laboratories and acclimated to the facility. At about 5 weeks of age, mice were prospectively randomized into groups and assigned to the treatment conditions shown in FIG. 1. Topical treatments were applied in a thin film to the right flank skin without occlusive dressings; subcutaneous injections were also administered to the right flank. […] They were housed in the same room, in 11 cages according to group, and fed ad libitum. Skin tissue was sampled and serum lipids tested on day 28. Tissue was fixed in formalin and stained with hematoxylin and eosin.
All sections are shown at the same magnification (scale bar at top right=640 microns). The surface of the skin is oriented toward the top and left of each panel. Arrows in each section denote the panniculus carnosus, an anatomic layer that separates the first layer of subdermal fat from deeper, subpannicular fat (separation artifact is commonly seen deep to the panniculus and is not an in vivo process).

[2] = Projected systemic dose, mouse (FIG. 12); format: in vivo; settings: topical, 100% serum bioavailability assumed
Excerpt: (§2) FIG. 12 compares various topical doses of latanoprost in mouse, rat, and human, with respect to projected systemic dose. All calculations assume once-daily dosing and 100% serum bioavailability. The derivation of each dose is set forth based on the animal body weight, drug concentration, and drug volume. Finally, doses are scaled allometrically for body surface area (mg/m^2/d), as is appropriate for most low-molecular-weight molecules.

[3] = Serum lipids on day 28, (db-/db-) mice; format: in vivo
Experimental: as §1
FIG. 5 charts the triglyceride and total cholesterol results (mg/dl) for the topical treatment conditions as follows: Group 1=C, 3=D, 4=E, 5=F, 6=G, 10=H, 11=I.

[4] = Weight gain and condition, 4-week repeat-dose trial in (db-/db-) mice; format: in vivo
Experimental: A randomized, controlled, repeat-dose, 4-week trial was conducted on (db−/db−) mice, which are defective for the leptin receptor (Jackson Laboratories). These mice are genetically obese, dyslipidemic, and diabetic.
as §1

[5] = Clinical application: person with dyslipidemia, oral extended-release tafluprost (Example 8); format: in vivo, human; settings: oral extended-release 5 mg daily, 1 to 6 months
Excerpt: The following description exemplifies a clinical application of the invention to reduce lipid concentrations in a patient with dyslipidemia and a history of coronary artery disease and myocardial infarction. A person with a history of obesity, hyperlipidemia, coronary artery disease, and myocardial infarction is found to have elevated serum triglycerides, total cholesterol, and low density lipoprotein, despite use of a statin. The person's physician prescribes an oral, extended-release formulation of tafluprost, for example, an extended-release tablet comprising 5 mg tafluprost, with instructions to take one capsule by mouth daily. After a period of time, for example from 1 to 6 months, the person's serum triglycerides, total cholesterol, and low density lipoprotein concentrations are reduced. Body weight is also seen to improve.

[6] = obese adults, 120 mg three times daily, after two years; cited from earlier work
[7] = Oral Glucose Tolerance Test on day 29, ZDF rats; format: in vivo; settings: for oral glucose tolerance: day 29; for serum glucose AUC15-120 lower compared to vehicle-treated animals: 15 to 120 minutes post-glucose load
Experimental: (§3) Methods: Male ZDF rats, approximately 8 weeks old, were obtained from Jackson Laboratories and acclimated to the facility. There were 3 animals per treatment arm. Test articles were applied in a thin film to the right flank without occlusive dressings, at 0.3 ml daily for 28 days. Rats were fed ad libitum and housed in the same room in 4 cages according to group. […] Food consumption was measured by residual weight of chow. Animals were fasted overnight prior to day 29, and Oral Glucose Tolerance Tests were conducted on day 29 (1 g glucose per kg body weight). Skin tissue and serum chemistries were collected at day 29.

[8] = Weight gain, food consumption and condition, 4-week study of latanoprost transdermal cream in ZDF rats; format: in vivo; settings: for mean weight gain for days 0 to 29: 0.3 ml daily, vs vehicle
Experimental: A controlled, repeat-dose, 4-week, dose-ranging study of latanoprost transdermal cream was conducted in Zucker Diabetic Fatty (ZDF) rats (ZDF-Lepr^fa/Crl), which are defective for the leptin receptor, obese, hyperlipidemic, and diabetic.
as §3

[9] = Minimum effective dose and projected systemic dose, rat (FIG. 12); format: in vivo
Excerpt: These effects were dose-dependent, and the minimum effective dose for these effects was deemed to be the 0.05% concentration.
as §2

[10] = Serum lipid levels on day 29, ZDF rats; format: in vivo
Experimental: as §3

subcutaneous fat [11] = experiment: Histologic sections of skin and subcutaneous fat, ZDF rats; format: in vivo
Experimental: as §3
All sections are shown at the same magnification (scale bar at top right=500 microns). The surface of the skin is oriented toward the top of each panel.

[12] = in vivo; cited from earlier work
[13] = Human ophthalmic dose and projected human transdermal dose (FIG. 12); settings: by comparison to minimum effective dose in the rat
Excerpt: as §2

[14] = Clinical application: person with metabolic syndrome, latanoprost transdermal 0.7% gel (Example 7); format: in vivo, human; settings: 2 ml once daily, 1 to 6 months
Experimental: The following description exemplifies a clinical application of the invention to treat obesity, dyslipidemia, and type 2 diabetes mellitus in a person with metabolic syndrome.
A person is suffers from obesity, dyslipidemia, and type 2 diabetes. […] Their waist circumference is 42 inches. Their noninvasive blood pressure is 184/98. Their fasting serum glucose is […] and their glycated hemoglobin (hemoglobin A1C) is 8.1. Fasting serum lipids are as follows: triglycerides, 220 mg/dL; total cholesterol, 310 mg/dL, LDL 240 mg/dL, HDL, 35 mg/dL. Their physical exam is notable for prominent central (abdominal) obesity. In addition to medical therapy, the person's physician recommends a regimen of diet and exercise. After six months the person's weight, hemoglobin A1C, serum glucose, and serum lipids are unimproved. The physician prescribes systemic therapy with latanoprost, for example, a transdermal 0.7% gel in a metered-dose dispenser, with instructions to apply 2 ml metered dose once daily to the skin of the shoulders. After a period of time, for example from 1 to 6 months, the person's weight is reduced. Serum glucose, hemoglobin A1C, fasting serum LDL, and fasting serum triglycerides also diminish. Fasting serum HDL rises.

[15] = transdermal/topical to right flank skin, vs vehicle
[16] = topical 0.5% and 0.05%, day 29, vs vehicle, not statistically significant

CC(C)OC(=O)CCC/C=C\C[C@@H]1[C@@H](/C=C/[C@@H](O)CCc2ccccc2)[C@H](O)C[C@@H]1O [BIE, 17-phenyl trinor prostaglandin F2α isopropyl ester]
adipocytes deep to the panniculus (subcutaneous fat [1]; topical 0.3%): profound shrinkage of adipocytes deep to the panniculus
adipocytes and adipose layer, treated (right) flank (subcutaneous fat [1]; topical 0.3%): smaller adipocytes and thinner adipocyte layers
adipocytes and adipose layer, untreated (left) flank (subcutaneous fat [1]; topical 0.3%): smaller adipocytes and thinner adipocyte layers
local versus systemic effect by histology (subcutaneous fat [1]): indicative of a systemic effect
systemic dose at which serum lipids and obesity responded [2]: 10 mg/m^2/d
serum lipids ([3]; subcutaneous, day 28): no significant effect on serum lipids
serum total cholesterol ([3]; transdermal 0.1%, unfasted, day 28): significantly lower
mean weight gain for days 0 to 28 ([4]; subcutaneous, right flank): no significant effect on weight gain
potency of transdermal BIE relative to transdermal BFA, for each effect (weight gain, serum lipids) ([4]; transdermal): more potent
mean weight gain for days 0 to 28 [4, 15]: reduced weight gain significantly and in a dose-dependent manner

CC(C)OC(=O)CCC/C=C\C[C@@H]1[C@@H](/C=C/C(F)(F)COc2ccccc2)[C@H](O)C[C@@H]1O [tafluprost]
body weight [5]: improve
serum triglycerides, total cholesterol, low density lipoprotein concentrations [5]: reduced

CCNC(=O)CCC/C=C\C[C@@H]1[C@@H](/C=C/[C@@H](O)CCc2ccccc2)[C@H](O)C[C@@H]1O [bimatoprost, 17-phenyl trinor prostaglandin F2α ethyl amide]
adipocytes and adipose layer, treated (right) flank (subcutaneous fat [1]; topical 0.3%): smaller adipocytes and a thinner adipose layer
adipocytes and adipose layer, untreated (left) flank (subcutaneous fat [1]; topical 0.3%): resembled that of a vehicle-treated animal
local versus systemic effect by histology (subcutaneous fat [1]): local effect, but not a systemic effect
serum lipids ([3]; topical, day 28): no significant effect on serum lipids

O=C(O)CCC/C=C\C[C@@H]1[C@@H](/C=C/[C@@H](O)CCc2ccccc2)[C@H](O)C[C@@H]1O [BFA, 17-phenyl trinor prostaglandin F2α]
serum lipids ([3]; intraperitoneal, day 28): no significant effect on serum lipids
serum lipids ([3]; subcutaneous, day 28): no significant effect on serum lipids
serum triglycerides ([3]; transdermal 0.1% or 0.3%, unfasted, day 28, vs control): significantly reduced
mean weight gain for days 0 to 28 ([4]; intraperitoneal): no significant effect on weight gain
mean weight gain for days 0 to 28 ([4]; subcutaneous, right flank): no significant effect on weight gain
mean weight gain for days 0 to 28 [4, 15]: reduced weight gain significantly and in a dose-dependent manner

CCCCCCCCCCC[C@@H](C[C@@H]1OC(=O)[C@H]1CCCCCC)OC(=O)[C@H](CC(C)C)NC=O [Orlistat]
loss of baseline body weight [6]: 8.8%
serum lipids and serum glucose [6]: not accompanied by any absolute improvement in serum lipids or serum glucose

CC(C)OC(=O)CCC/C=C\C[C@@H]1[C@@H](CC[C@@H](O)CCc2ccccc2)[C@H](O)C[C@@H]1O [latanoprost, 17-phenyl-13,14-dihydro trinor prostaglandin F2α isopropyl ester]
oral glucose tolerance ([7]; topical 0.005%): no effect on oral glucose tolerance
serum glucose AUC15-120 lower compared to vehicle-treated animals ([7]; topical 0.05%): 12%
oral glucose tolerance ([7]; topical 0.5% and 0.05%): dose-dependent improvements in oral glucose tolerance
serum glucose AUC15-120 lower compared to vehicle-treated animals ([7]; topical 0.5%): 26%
mean weight gain for days 0 to 29 ([8]; topical 0.005%): dose-dependent reductions in weight gain
daily observations and skin condition ([8]; topical 0.005-0.5%, 28 days): unremarkable
mean weight gain for days 0 to 29 ([8]; topical 0.05%): dose-dependent reductions in weight gain, which were statistically significant
mean weight gain for days 0 to 29 ([8]; topical 0.5%): dose-dependent reductions in weight gain, which were statistically significant
minimum effective dose of topical latanoprost, as concentration ([9]; rat, equivalent of 0.05%): 0.5 mg/mL
systemic dose corresponding to minimum effective topical dose ([9]; rat, once-daily dosing, 100% serum bioavailability assumed, scaled for body surface area): 3.6 mg/m^2/d
minimum effective dose (concentration) for weight gain, serum lipids, glucose tolerance ([9]; transdermal, ZDF rat): 0.05%
serum lipid benefits (triglycerides, LDL, HDL, HDL:LDL ratio) ([10]; topical 0.005%, day 29): absent
HDL:LDL ratio ([10]; topical 0.5% and 0.05%, day 29, vs vehicle, 0.5% one-sided p<0.05): dose-dependent increases
serum HDL [10, 16]: dose-dependent increases
serum LDL [10, 16]: dose-dependent reductions
serum triglycerides [10, 16]: dose-dependent reductions
adipocytes and adipose layer, treated (right) flank (subcutaneous fat [11]; topical 0.005%): fewer and smaller adipocytes, and a thinner adipose layer
adipocytes and adipose layer, untreated (left) flank (subcutaneous fat [11]; topical 0.005%): resembled that of a vehicle-treated animal
local versus systemic effect by histology (subcutaneous fat [11]; topical 0.005%): local effect, but not a systemic effect
adipocytes, adipose layer and dermis, treated flank (subcutaneous fat [11]; topical 0.5%): fewer and smaller adipocytes, and thinner adipose layer and dermis
adipocytes, adipose layer and dermis, untreated flank (subcutaneous fat [11]; topical 0.5%): fewer and smaller adipocytes, and thinner adipose layer and dermis
local versus systemic effect by histology (subcutaneous fat [11]; topical 0.5%): indicative of a systemic effect
serum elimination half-life [12]: about 17 minutes
predicted human transdermal dose sufficient for systemic benefit (serum lipids, diabetic condition, obesity) [13]: about 7 mg per day
fasting serum HDL [14]: rises
serum glucose, hemoglobin A1C, fasting serum LDL, fasting serum triglycerides [14]: diminish
weight [14]: reduced
